Where a name gives a salt, the structure may show the parent alone.
Legend:
[1] = biological target: human mPGES-1 (Homo sapiens (Human), UniProt O14684); test: mPGES-1 inhibitory activity test; format: biochemical; details: for IC50: microsomes of CHO-K1 cells expressing human mPGES-1, PGH2 1 μM, PGE2 by HTRF, read-out: mPGES-1 inhibition (IC50 nM); for inhibition at 0.01 µM: 10 nM test compound; for inhibition at 0.1 µM: 100 nM test compound
Protocol: mPGES-1 microsomal specimens were prepared by transiently transfecting CHO-K1 cells (DS Pharma Biomedical Co. Ltd) with a plasmid encoding human mPGES-1 cDNA using FuGENE 6 Transfection Reagent (Promega). The prepared mPGES-1 microsome specimens were diluted in potassium phosphate buffer of pH 7.4 comprising 2.5 mM reduced glutathione (Sigma-Aldrich), DMSO solution of a test compound or DMSO was added to a final concentration of 1% of DMSO, and then incubated at 4° C. for 20 minutes. The enzymatic reaction was then initiated by adding a solution of PGH2 (Cayman chemical) substrate of a final concentration 1 μM and incubated at 4° C. for 60 seconds. The reaction was terminated by adding a solution of ferric chloride (STREM CHEMICALS) and citric acid (Wako Pure Chemical Industries) salt to a final concentration of 5 mg/mL and 250 mM, respectively. The formed PGE2 was quantified using the HTRF kit (Cisbio International). Solutions without the test compound were used as positive controls, and solutions without the test compound and microsomal specimens were used as negative controls. 100% activity was defined as production of PGE2 in the positive control minus that in the negative control. The percentage inhibition of production of PGE2 at final concentrations of 10 nM and 100 nM of the test compound was then calculated, or IC50 values were determined using standard methods.

[2] = tested on: human A549 cells; test: Inhibition test of PGE2 production using human A549 cells; format: cell-based; details: IL-1β stimulated A549 cells, 24 h, PGE2 by HTRF, read-out: A549 cell inhibition of PGE2 production IC50
Protocol: 100 μL of RPMI medium (Sigma) comprising 10% FBS and human A549 cells was seeded in a 96-well plate to […] cells per well, and incubated overnight. The medium was then removed and washed with phosphate-buffered saline, and added to a DMSO solution of the test compound or RPMI medium comprising 3% FBS with DMSO to a final concentration of 0.1% DMSO. After incubation for 60 minutes, IL-1P (5 ng/well, BioLegend) was added to the solution. After incubation at 37° C. for 24 h, PGE2 in the medium was quantified using the HTRF kit (Cisbio International) and PGF2a was also quantified using the EIA kit (Cayman chemical). Solutions without the test compound were used as positive controls, and solutions without the test compound and IL-1β were used as negative controls. 100% activity was defined as production of PGE2 and PGF2a in the positive control minus those in the negative control. IC50 values were then determined using standard methods.

human mPGES-1, sequence (O14684 whole entry): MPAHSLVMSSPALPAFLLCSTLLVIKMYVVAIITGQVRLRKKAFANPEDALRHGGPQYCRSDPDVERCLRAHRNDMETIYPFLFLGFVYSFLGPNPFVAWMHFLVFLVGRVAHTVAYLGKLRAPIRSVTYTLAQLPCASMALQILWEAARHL

Row | IC50 [1] [nM] | IC50 [2] [nM] | inhibition at 0.01 µM [1] [%] | inhibition at 0.1 µM [1] [%] | Compound
1 | 71.1 | 260 | – | – | CC(C)(C)C(=O)NCc1ccc(Cl)c(C(=O)Nc2cccc3c2cnn3-c2ccc(CO)nc2)c1 [Example 75, 2-Chloro-5-{[(2,2-dimethylpropanoyl)amino]methyl}-N-{1-[6-(hydroxymethyl)pyridin-3-yl]-1H-indazol-4-yl}benzamide]
2 | 10 | 4.4 | – | – | O=C(Nc1cccc2c1cnn2-c1ccc(C(F)(F)F)cc1)c1cc(CNC(=O)C2(O)CC2)ccc1Cl [Example 27]
3 | – | 3 | 50 | 90 | COc1ccc(-n2ncc3c(NC(=O)c4cc(CNC(=O)C5(C(F)(F)F)CC5)ccc4Cl)cccc32)cn1 [Example 271, 2-Chloro-N-[1-(6-methoxypyridin-3-yl)-1H-indazol-4-yl]-5-[({[1-(trifluoromethyl)cyclopropyl]carbonyl}amino)methyl]benzamide]
4 | 5.7 | 7.5 | – | – | O=C(CC1CC1)NCc1ccc(Cl)c(C(=O)Nc2cccc3c2cnn3-c2ccc(C(F)(F)F)cc2)c1 [Example 38, 2-Chloro-5-{[(cyclopropylacetyl)amino]methyl}-N-{1-[4-(trifluoromethyl)phenyl]-1H-indazol-4-yl}benzamide]
5 | 1.6 | 5.5 | – | – | O=C(Nc1cccc2c1cnn2-c1ccc(C(F)(F)F)cc1)c1cc(CNC(=O)C2CCCCC2)ccc1Cl [Example 31, 2-Chloro-5-{[(cyclohexylcarbonyl)amino]methyl}-N-{1-[4-(trifluoromethyl)phenyl]-1H-indazol-4-yl}benzamide]
6 | 10 | 9.2 | – | – | CC(C)(C)C(=O)NCc1ccc(Cl)c(C(=O)Nc2cccc3c2cnn3Cc2cccc(C(F)(F)F)c2)c1 [Example 94, 2-Chloro-5-{[(2,2-dimethylpropanoyl)amino]methyl}-N-{1-[3-(trifluoromethyl)benzyl]-1H-indazol-4-yl}benzamide]
7 | – | 0.9 | 69 | 103 | Cc1ccc(-n2ncc3c(NC(=O)c4cc(CNC(=O)C(C)(C)C)ccc4C(F)(F)F)cccc32)cc1Cl [Example 200, N-[1-(3-chloro-4-methylphenyl)-1H-indazol-4-yl]-5-{[(2,2-dimethylpropanoyl)amino]methyl}-2-(trifluoromethyl)benzamide]
8 | 23 | 12.1 | – | – | O=C(Nc1cccc2c1cnn2-c1ccc(C(F)(F)F)cc1)c1cc(CNC(=O)C23CC4CC(CC(C4)C2)C3)ccc1Cl [Example 32, N-[4-chloro-3-({1-[4-(trifluoromethyl)phenyl]-1H-indazol-4-yl}carbamoyl)benzyl]tricyclo[3.3.1.1^3,]decane-1-carboxamide]
9 | 10.4 | 9.8 | – | – | COCc1cncc(-n2ncc3c(NC(=O)c4cc(CNC(=O)C(C)(C)C)ccc4Cl)cccc32)c1 [Example 78, 2-Chloro-5-{[(2,2-dimethylpropanoyl)amino]methyl}-N-{1-[5-(methoxymethyl)pyridin-3-yl]-1H-indazol-4-yl}benzamide hydrochloride]
10 | 1.8 | 1.6 | – | – | Cc1cccc(-n2ncc3c(NC(=O)c4cc(CNC(=O)C5CC5)ccc4Cl)cccc32)c1 [Example 7, 2-Chloro-5-{[(cyclopropylcarbonyl)amino]methyl}-N-[1-(3-methylphenyl)-1H-indazol-4-yl]benzamide]
11 | – | 33 | 71 | – | O=C(Nc1cccc2c1cnn2-c1cscn1)c1cc(CNS(=O)(=O)C2CC2)ccc1Cl [Example 193, 2-Chloro-5-{[(cyclopropylsulfonyl)amino]methyl}-N-[1-(1,3-thiazol-4-yl)-1H-indazol-4-yl]benzamide]
12 | 3.3 | 4 | – | – | COc1ccc(-n2ncc3c(NC(=O)c4cc(CNC(=O)C(C)(C)C)ccc4Cl)cccc32)cc1 [Example 48, 2-Chloro-5-{[(2,2-dimethylpropanoyl)amino]methyl}-N-[1-(4-methoxyphenyl)-1H-indazol-4-yl]benzamide]
13 | – | 379 | 64 | – | CCn1ncc2c(NC(=O)c3cc(CNC(=O)CC(C)(C)C)ccc3Cl)cccc21 [Example 210, 2-Chloro-5-{[(3,3-dimethylbutanoyl)amino]methyl}-N-(1-ethyl-1H-indazol-4-yl)benzamide]
14 | – | 4.4 | 59 | 95 | O=C(Nc1cccc2c1cnn2-c1ccc(C(F)(F)F)nc1)c1cc(CNS(=O)(=O)C2CC2)ccc1Cl [Example 179, 2-Chloro-5-{[(cyclopropylsulfonyl)amino]methyl}-N-{1-[6-(trifluoromethyl)pyridin-3-yl]-1H-indazol-4-yl}benzamide]
15 | 2.3 | 13.5 | – | – | CCCC(=O)NCc1ccc(Cl)c(C(=O)Nc2cccc3c2cnn3-c2ccc(C(F)(F)F)cc2)c1 [Example 43, 5-[(Butanoylamino)methyl]-2-chloro-N-{1-[4-(trifluoromethyl)phenyl]-1H-indazol-4-yl}benzamide]
16 | 1.3 | 4.1 | – | – | CC(C)(C)C(=O)NCc1ccc(Cl)c(C(=O)Nc2cccc3c2cnn3CC2CCC2)c1 [Example 99, 2-Chloro-N-[1-(cyclobutylmethyl)-1H-indazol-4-yl]-5-{[(2,2-dimethylpropanoyl)amino]methyl}benzamide]
17 | 6.1 | 1 | – | – | CCC(=O)NCc1ccc(Cl)c(C(=O)Nc2cccc3c2cnn3-c2ccc(C(F)(F)F)cc2)c1 [Example 19, 2-Chloro-5-[(propanoylamino)methyl]-N-{1-[4-(trifluoromethyl)phenyl]-1H-indazol-4-yl}benzamide]
18 | 14.7 | 3.5 | – | – | CC(C)(C)C(=O)NCc1ccc(Cl)c(C(=O)Nc2cccc3c2cnn3-c2ccc(C(F)(F)F)cc2)c1 [Example 50, 2-Chloro-5-{[(2,2-dimethylpropanoyl)amino]methyl}-N-{1-[4-(trifluoromethyl)phenyl]-1H-indazol-4-yl}benzamide]
19 | – | 14.6 | 100 | – | O=C(Nc1cccc2c1cnn2-c1ccc(F)cc1)c1cc(CNS(=O)(=O)C2CC2)ccc1Cl [Example 157, 2-Chloro-5-{[(cyclopropylsulfonyl)amino]methyl}-N-[1-(4-fluorophenyl)-1H-indazol-4-yl]benzamide]
20 | 2.4 | 3.6 | – | – | COc1ccc(-n2ncc3c(NC(=O)c4cc(CNC(=O)C(C)(C)C)ccc4Cl)cccc32)cc1C(F)(F)F [Example 62, 2-Chloro-5-{[(2,2-dimethylpropanoyl)amino]methyl}-N-{1-[4-methoxy-3-(trifluoromethyl)phenyl]-1H-indazol-4-yl}benzamide]
21 | – | 7.1 | 63 | 86 | CC(C)(CO)C(=O)NCc1ccc(Cl)c(C(=O)Nc2cccc3c2cnn3-c2ccc(F)cc2)c1 [Example 156, 2-Chloro-N-[1-(4-fluorophenyl)-1H-indazol-4-yl]-5-([(3-hydroxy-2,2-dimethylpropanoyl)amino]methyl)benzamide]
22 | 391 | – | – | – | CC#CC(=O)NCc1ccc(Cl)c(C(=O)Nc2cccc3c2cnn3-c2ccc(C(F)(F)F)cc2)c1 [Example 42, 5-[(2-Butynoylamino)methyl]-2-chloro-N-{1-[4-(trifluoromethyl)phenyl]-1H-indazol-4-yl}benzamide]
23 | 18.8 | – | – | – | O=C(Nc1cccc2c1cnn2-c1cccnc1)c1cc(CNC(=O)C2CC2)ccc1Cl [Example 4, 2-Chloro-5-{[(cyclopropylcarbonyl)amino]methyl}-N-[1-(pyridin-3-yl)-1H-indazol-4-yl]benzamide hydrochloride]
